Data on 2 compounds can be found in patent US7915238B2, “Immunomodulatory compounds and methods of use thereof” (Eisai R & D Management Co., Ltd., priority 1999, dated 2011).

Assay [1] has as its system mouse macrophage line RAW 264.7. The experiment in a line: Tolerization to TLR family ligands, TNF-alpha release. The assay is classed as cell-based. To be noted: pretreated 24 hours at 0.1 μg/mL. How it is done: Cells of the mouse macrophage line RAW 264.7 were plated in RPMI 1640 complete culture medium (10% fetal bovine serum, 1 mM sodium pyruvate, 2 mM L-glutamine, 100 U/mL penicillin/streptomycin and 50 μM β-mercaptoethanol). Cells were treated for 24 hours with the TLR4 ligand ER-803022 at 0.1 μg/mL by addition of a concentrated stock solution. Negative control cells were treated with an equivalent volume of PBS. After 24 hours, cells were washed twice in RPMI 1640 complete medium and incubated in medium alone for 3 hours. Cultures were then restimulated with the following synthetic TLR ligands: lipopeptide (S-lipo, a ligand for TLR2) at 0.1 μg/mL, ER-803022 at 0.1 μg/mL, a mouse CpG oligonucleotide of the sequence […] (a ligand of murine TLR9) at 0.5 μg/mL, or PBS. Supernatants were taken at 3 and 4 hours and cytokine levels were determined by ELISA.

The subject of another assay is Adherent PBMC. Put plainly: Cytokine production by stimulated adherent human PBMC. The class given is cell-based. To be noted: 50 nM.
The next assay deals with EGFRvIII peptide. The experiment in a line: EGFRvIII peptide-specific antibody titers after immunization (ELISA). The assay is classed as in vivo, C57/BL6J mice. To be noted: s.c. with 25 μg peptide-KLH, 804057 3 μg, GM-CSF 5 μg. The text has this: To determine whether an adjuvant can enhance the effect of an oncology antigen (i.e., an antigen that can be used to vaccinate a subject individual against a cancer), C57/BL6J mice were immunized subcutaneously with a tumor-associated peptide, LEEKKGNYVVTDHC (SEQ ID NO:2) (derived from a mutant form of EGFR, […]) conjugated to the protein carrier keyhole limpet hemocyanin (KLH), with or without Compound 804057 or murine GM-CSF, a cytokine used in cancer vaccine trials to boost immune response. Compound 804057 was dosed at 3 μg, GM-CSF at 5 μg and the peptide-KLH conjugate at 25 μg per dose. Mice were immunized three times at intervals of three weeks. Serum was prepared from mice two weeks after each immunization and tested for […] peptide-specific antibodies using ELISA on plates coated with EGFRvIII peptide conjugated to bovine serum albumin. The results in Table 3 are presented as titers from individual animals. The titer is defined as the last serum dilution at which a signal at 0.25 OD units above background was observed.

The subject of a further assay is Whole blood. Put plainly: IL-12p70 production in whole blood, 24 hrs (Table 2). The class given is cell-based, human. Particulars: 50 nM.
For assay [2], the system named is B16F10 murine melanoma cells. Put plainly: Survival of melanoma-bearing mice, i.p. compound with s.c. B16 GM-CSF cell vaccine. The assay is classed as in vivo, B6 mice (C57BL6 mice). Particulars: i.p. Compound 804057 combined with s.c. B16 GM-CSF cells, three days after tumor inoculation; FIG. 7. The text has this: To determine the effect of Compound 804057 when administered intraperitoneally with a cancer vaccine, e.g., granulocyte-macrophage colony stimulating factor (GM-CSF) secreting tumor cells, a mouse model using melanoma cells was used. Compound 804057 is a TLR-4 (Toll-like receptor-4) agonist. B6 mice (C57BL6 mice) were engrafted subcutaneously with […] murine melanoma cells. Three days after tumor cell inoculation, the mice were either (1) vaccinated subcutaneously (s.c.) with 1×10^6 B16F10 tumor cells that were genetically modified to stably express and secrete murine GM-CSF (B16-GM-CSF cells); (2) vaccinated intraperitoneally (i.p.) with Compound 804057; or (3) were treated with a combination of s.c. GM-CSF cell vaccination and i.p. Compound 804057 (the GM-CSF cell vaccination and Compound 804057 vaccination were administered at separate sites in the mice). In these experiments, the GM-CSF cells were inactivated by gamma-irradiation prior to inoculation. Survival of the animals was monitored.

Another assay has as its system Human Whole Blood. The experiment in a line: Cytokine release in human whole blood (ELISA). The class given is cell-based. The essentials:
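Heparinized whole blood from healthy donors (80% final) incubated 3 h at 37 °C, 5% CO2 with compound at various concentrations. Plasma TNF-alpha, IL-10 and IL-12 measured by ELISA in triplicate; 10 ng/ml LPS included as reference stimulus.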

In assay [3] the test system is B16F10 murine melanoma cells. The experiment in a line: Survival of melanoma-bearing mice, intratumoral GM-CSF cells with compound. The assay is classed as in vivo, B6 mice. To be noted: about 3-10 μg, combined with GM-CSF cells, vs untreated or GM-CSF cells alone, FIG. 8. The method, then: The effect of Compound 804057 on treatment of B6 mice that were engrafted subcutaneously with 1×10^6 syngeneic B16F10 murine melanoma cells was examined. When tumors became palpable, the mice were injected intratumorally with GM-CSF cells alone, or in combination with Compound 804057 (about 3-10 μg). Survival of the animals was monitored.

In another assay the test system is Nonadherent PBMC. The experiment in a line: Cytokine production by stimulated nonadherent human PBMC. The class given is cell-based. To be noted: 50 nM, 24 hrs.
A further assay relates to MUC1 IL-10−/− mice. Put plainly: MUC-1 vaccine with adjuvant in mice that develop IBD and colon adenocarcinoma. The assay is classed as in vivo, mouse. How it is done: To test the effects of a MUC-1 vaccine with Compound 804057 adjuvant for treating inflammatory bowel disease (IBD) and subsequent development of colon adenocarcinoma, an engineered mouse strain that lacks the IL-10 gene and expresses transgenic human MUC1 was used. Such mice spontaneously develop intestinal inflammation resembling IBD followed by colon adenocarcinoma. […] 4, 2006.
In these experiments, mice were immunized intranasally with […] of Tn MUC100mer ([…])×5, SEQ ID NO:1) and […] of Compound 804057. Animals were vaccinated at about 4.5 weeks and boosted at about 6.5 weeks and 9 weeks.

Setting [4] is: titer = last serum dilution 0.25 OD above background.

SMILES strings stand for the structures. Where “and” joins values, the source holds several entries; their conditions need not be identical. Equal entries are not always repeated.

As to `CCCCCCCCCCCCCC(=O)N[C@H](COCC[C@@H](CCCCCCC)OC(=O)CCCCCCCCCCC)COP(=O)([O-])OCCNC(=O)NCCOP(=O)([O-])OC[C@@H](COCC[C@@H](CCCCCCC)OC(=O)CCCCCCCCCCC)NC(=O)CCCCCCCCCCCCC.[Na+].[Na+]` [ER 803022], the “TNF-alpha release in response to CpG oligonucleotide, a TLR9 ligand” value in assay [1] (restimulated with CpG 0.5 μg/mL) is given as “diminished release of TNF-alpha”. Also, the “TNF-alpha release upon subsequent exposure to ER803022 (TLR4 ligand)” value in assay [1] (restimulated with ER-803022 0.1 μg/mL, vs not pretreated) is listed as “released less TNF-alpha”. In assay [1] (restimulated with S-lipo 0.1 μg/mL), the “TNF-alpha release in response to TLR2 ligand S-lipoprotein” value is reported as “diminished release of TNF-alpha”.

As for `CCCCCCCCCCCC(=O)CC(=O)N[C@H](COCC[C@@H](CCCCCCC)OC(=O)CCCCCCCCCCC)COP(=O)([O-])OCCNC(=O)NCCOP(=O)([O-])OC[C@@H](COCC[C@@H](CCCCCCC)OC(=O)CCCCCCCCCCC)NC(=O)CC(=O)CCCCCCCCCCC.[Na+].[Na+]` [ER 804057], in the assay with Adherent PBMC (4 hrs), the “Cytokine Production IL-1α” value worked out at 8 pg/mL, the “Cytokine Production IL-1β” value amounted to 55 pg/mL, the “Cytokine Production IL-6” value amounted to 551 pg/mL and the “Cytokine Production Interferon-α” value turned out to be 345 pg/mL. In addition, the “Cytokine Production TNF-α” value in the assay with Adherent PBMC (4 hrs) is 3627 pg/mL. For the same compound, the “Cytokine Production IL-10” value in the assay on Adherent PBMC (24 hrs) worked out at 175 pg/mL. Besides, the “Cytokine Production Interferon-α” value in the assay on Adherent PBMC (48 hrs) stood at 175 pg/mL. The “Geometric mean titer, IgG1” value with EGFRvIII peptide came out at 20182. Besides, in the assay on EGFRvIII peptide (setting [4]), the “Antibody titers to EGFRvIII peptide, IgG1, individual animals” value is 24000 (6×) and 48000 and 3000; the “Antibody titers to EGFRvIII peptide, IgG2a, individual animals” value is 6000 (2×) and 12000 (3×) and 24000 and 48000 and 1500. For the same compound, the “Cytokine Production IL-12p70” value in the assay on Whole blood came to 1332 pg/mL. Besides, in assay [2], the “therapeutic efficacy (survival) of tumor-bearing mice” value is “enhanced the therapeutic efficacy of the GM-CSF cells”. In the assay on Human Whole Blood (FIG. 2), the “IL-10 release from blood-borne cells” value is given as “stimulate blood-borne cells to release IL-10” and the “IL-12 release from blood-borne cells” value was “stimulate blood-borne cells to release IL-12”. Besides, the EC50 with Human Whole Blood (whole blood, vs. % of LPS at 10 ng/ml, read-out: WB ED50 vs LPS@ 10 ng/ml) worked out at 8 nM. Besides, the “survival of tumor-bearing mice” value in assay [3] is “increased survival”. Also, in the assay with Nonadherent PBMC, the “Cytokine Production GM-CSF” value worked out at 353 pg/mL, the “Cytokine Production IL-1α” value stood at 108 pg/mL, the “Cytokine Production IL-1β” value was found to be 431 pg/mL and the “Cytokine Production Interferon-γ” value was 331 pg/mL. Besides, in the assay on MUC1 IL-10−/− mice (added to the MUC-1 vaccine), the “appearance of histologically detected tumors” value is recorded as “suppresses the appearance of histologically detected tumors” and the “progression to rectal prolapse associated with IBD” value is given as “can slow the progression to rectal prolapse associated with IBD”. Further, in the assay with MUC1 IL-10−/− mice (age of treated mice, Table 5), the “Age (weeks)” value is given as 12.5-18 weeks. In the assay on MUC1 IL-10−/− mice (intranasal with MUC-1 vaccine (Tn MUC100mer)), the “development of colon cancer” value is “did not develop colon cancer”. The “onset of IBD” value with MUC1 IL-10−/− mice (intranasal with MUC-1 vaccine (Tn MUC100mer), FIG. 9) is “delayed onset of IBD or did not develop IBD”. In addition, in the assay with MUC1 IL-10−/− mice (intranasal with MUC-1 vaccine (Tn MUC100mer), FIG. 10), the survival result is reported as “improved survival”. In addition, the Colon tumors in the assay with MUC1 IL-10−/− mice (mice with tumors / mice treated) is 3/3.
